pIC50: −log10 of the molar value. Activity calls are given as the source filed them. No cut-off for these calls is given here. Starred links: 1 amine or outer side, 2 acyl side, 3 side chain; linkers in the order of their positions; H or OH if unused. Non-standard residues stand in square brackets, D forms with d. Residues, ends and D or L forms follow the SMILES beside them. X3 = O=C(CC1CCN([*:1])CC1)[*:2]; Ahp = NCCCCCCC(=O)O; Ava = NCCCCC(=O)O
Experiments:
[1] = molecular target: Human immunodeficiency virus type 1 integrase (Human immunodeficiency virus 1, UniProt Q7ZJM1, C280S/F185K); experiment: Inhibition of HIV1 3'-processing activity of integrase F185K/C280S double mutant expressed in Escherichia coli BL21 (DE3)
[2] = system: Human immunodeficiency virus type 1 integrase (Human immunodeficiency virus 1), Q7ZJM1 [F185K,C280S]; experiment: Inhibition of HIV1 integrase F185K/C280S double mutant dimerization expressed in Escherichia coli BL21 (DE3) at 110 uM after 1 hr by PAGE analysis

Compound | pIC50 [1] | inhibition [2]
H-HLKTAVQMAVFIHNFKR-OH | 5.70 | 
CC[C@H](C)[C@H](NC(=O)[C@H](CC(=O)O)NC(=O)[C@@H](NC(=O)[C@H](C)NC(=O)[C@@H](NC(=O)[C@@H](NC(=O)[C@H](CC(=O)O)NC(=O)[C@@H](NC(=O)[C@@H](NC(=O)[C@H](CCCNC(=N)N)NC(=O)[C@H](CCC(=O)O)NC(=O)CNC(=O)[C@H](C)NC(=O)CC1CCN(C(=O)[C@H](CCCNC(=N)N)NC(=O)[C@H](CCCCN)NC(=O)[C@H](Cc2ccccc2)NC(=O)[C@H](CC(N)=O)NC(=O)[C@H](Cc2cnc[nH]2)NC(=O)[C@@H](NC(=O)[C@H](Cc2ccccc2)NC(=O)[C@@H](NC(=O)[C@H](C)NC(=O)[C@H](CCSC)NC(=O)[C@H](CCC(N)=O)NC(=O)[C@@H](NC(=O)[C@H](C)NC(=O)[C@@H](NC(=O)[C@H](CCCCN)NC(=O)[C@H](CC(C)C)NC(=O)[C@@H](N)Cc2cnc[nH]2)[C@@H](C)O)C(C)C)C(C)C)[C@@H](C)CC)CC1)[C@@H](C)CC)C(C)C)[C@@H](C)CC)[C@@H](C)CC)[C@@H](C)O)C(=O)N[C@@H](CCC(N)=O)C(N)=O (H-HLKTAVQMAVFIHNFKR[X3]AGERIVDIIATDIQ-NH2) | 6.24 | Active
CC[C@H](C)[C@H](NC(=O)[C@H](CC(=O)O)NC(=O)[C@@H](NC(=O)[C@H](C)NC(=O)[C@@H](NC(=O)[C@@H](NC(=O)[C@H](CC(=O)O)NC(=O)[C@@H](NC(=O)[C@@H](NC(=O)[C@H](CCCNC(=N)N)NC(=O)[C@H](CCC(=O)O)NC(=O)CNC(=O)[C@H](C)NC(=O)CCCCCCNC(=O)[C@H](CCCNC(=N)N)NC(=O)[C@H](CCCCN)NC(=O)[C@H](Cc1ccccc1)NC(=O)[C@H](CC(N)=O)NC(=O)[C@H](Cc1cnc[nH]1)NC(=O)[C@@H](NC(=O)[C@H](Cc1ccccc1)NC(=O)[C@@H](NC(=O)[C@H](C)NC(=O)[C@H](CCSC)NC(=O)[C@H](CCC(N)=O)NC(=O)[C@@H](NC(=O)[C@H](C)NC(=O)[C@@H](NC(=O)[C@H](CCCCN)NC(=O)[C@H](CC(C)C)NC(=O)[C@@H](N)Cc1cnc[nH]1)[C@@H](C)O)C(C)C)C(C)C)[C@@H](C)CC)[C@@H](C)CC)C(C)C)[C@@H](C)CC)[C@@H](C)CC)[C@@H](C)O)C(=O)N[C@@H](CCC(N)=O)C(N)=O (H-HLKTAVQMAVFIHNFKR[Ahp]AGERIVDIIATDIQ-NH2) | 6.04 | Active
H-HLKTAVQMAVFIHNFKRKGGIGGYSAGERIVDIIATDIQ-NH2 | 5.77 | Active
H-AGERIVDIIATDIQ-NH2 | 5.52 | 
CC[C@H](C)[C@H](NC(=O)[C@H](CC(=O)O)NC(=O)[C@@H](NC(=O)[C@H](C)NC(=O)[C@@H](NC(=O)[C@@H](NC(=O)[C@H](CC(=O)O)NC(=O)[C@@H](NC(=O)[C@@H](NC(=O)[C@H](CCCNC(=N)N)NC(=O)[C@H](CCC(=O)O)NC(=O)CNC(=O)[C@H](C)NC(=O)CCCCNC(=O)[C@H](CCCNC(=N)N)NC(=O)[C@H](CCCCN)NC(=O)[C@H](Cc1ccccc1)NC(=O)[C@H](CC(N)=O)NC(=O)[C@H](Cc1cnc[nH]1)NC(=O)[C@@H](NC(=O)[C@H](Cc1ccccc1)NC(=O)[C@@H](NC(=O)[C@H](C)NC(=O)[C@H](CCSC)NC(=O)[C@H](CCC(N)=O)NC(=O)[C@@H](NC(=O)[C@H](C)NC(=O)[C@@H](NC(=O)[C@H](CCCCN)NC(=O)[C@H](CC(C)C)NC(=O)[C@@H](N)Cc1cnc[nH]1)[C@@H](C)O)C(C)C)C(C)C)[C@@H](C)CC)[C@@H](C)CC)C(C)C)[C@@H](C)CC)[C@@H](C)CC)[C@@H](C)O)C(=O)N[C@@H](CCC(N)=O)C(N)=O (H-HLKTAVQMAVFIHNFKR[Ava]AGERIVDIIATDIQ-NH2) | 5.43 | 
